# According to patent US4782058A, “1,3,4,6,7,11b-Hexahydro-6-phenyl-2H-pyrazino-(2,1-a)isoquinolines, for anti-histamine or anti-depression treatment” (Pennwalt Corporation, priority 1987, dated 1988):
# pIC50: −log10 of the molar value. Where a name gives a salt, the structure may show the parent alone.
# Key:
# [1] = system: tetrabenazine-induced ptosis; assay: inhibition of tetrabenazine-induced ptosis in mice; format: in vivo; details: Mus musculus, po; male CF-1 mice, orally administered 15 min before i.v. tetrabenazine; ptosis rated 30-150 min; read-out: lowest active dose (LAD)
# Protocol: A particularly useful compound with respect to antidepressant activity is the title compound of Example 1 (i.e., the cis-diastereoisomeric form of the compound of formula I in which R1 is methyl, R2 is methoxy, and R3 is hydrogen). That compound was tested for antidepressant activity by measuring its ability to inhibit tetrabenazine-induced ptosis in mice.
# Male CF-1 mice weighing 19-32 grams were housed for a minimum of 5 days under a 12 hour light/dark (6 am/6 pm) schedule at 70°-74° F. and relative humidity of 30-50%. Food and water were available ad libitum until the time of administration of test compounds. Mice in groups of ten were orally administered (via gastric intubation) either the control solution (distilled water, 10 ml/kg) or the test compound. The test compound was either dissolved in distilled water or suspended in distilled water containing a drop of polyoxyethylene 20 sorbitan monooleate, sold under the trademark, Tween 80. After fifteen minutes, a dose of 10 ml/kg of a solution of tetrabenazine (as its methane sulfonate salt) in distilled water (4 mg/ml) was administered by intravenous injection. The degree of palpebral closure (ptosis) was determined 30, 60, 90, 120, and 150 minutes after administration of the tetrabenazine solution. […]
# histamine H1 -receptors = biological target: T1, histamine H1 -receptors (Rattus norvegicus, UniProt P31390); assay: inhibition of binding of 3H-pyrilamine to homogenated rat cerebral tissue; details: 3H-pyrilamine binding, read-out: IC50 (50% inhibitory concentration)
# T1 construct: homogenated rat cerebral tissue; from tissue; host or cells: rat cerebral tissue, homogenate
# T1 sequence (P31390 whole entry): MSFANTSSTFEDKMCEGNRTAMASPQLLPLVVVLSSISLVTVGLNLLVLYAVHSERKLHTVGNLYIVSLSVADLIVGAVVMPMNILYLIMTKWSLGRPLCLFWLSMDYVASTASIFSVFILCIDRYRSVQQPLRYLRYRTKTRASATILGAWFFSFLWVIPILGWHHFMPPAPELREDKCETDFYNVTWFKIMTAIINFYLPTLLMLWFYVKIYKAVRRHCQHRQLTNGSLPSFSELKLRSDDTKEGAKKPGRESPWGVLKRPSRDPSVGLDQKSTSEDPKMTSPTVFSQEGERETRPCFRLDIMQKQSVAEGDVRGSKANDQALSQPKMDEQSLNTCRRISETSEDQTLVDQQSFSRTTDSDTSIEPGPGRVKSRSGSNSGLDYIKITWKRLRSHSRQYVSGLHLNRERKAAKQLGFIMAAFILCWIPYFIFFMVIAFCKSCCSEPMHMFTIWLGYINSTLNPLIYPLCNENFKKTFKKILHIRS
# Protocol: That compound was assayed for anti-histamine activity by measuring its ability to inhibit the binding of 3H-pyrilamine to homogenated rat cerebral tissue. (3H-Pyrilamine is a radioligand that is used to characterize histamine H1 -receptors in brain tissue.) Assay conditions were essentially those of V. T. Tran et al, Proc. Nat'l. Acad. Sci. (USA) 75, p. 6290-6294 (1978).
pIC50 (histamine H1 -receptors),Structure (SMILES),minimal effective dose [1] [mg/kg]
–,"COc1ccc2c(c1)C[C@@H](c1ccccc1)N1CCN(C)C[C@@H]21 (relative stereo) [Example 1, cis-1,3,4,6,7,11b-hexahydro-9-methoxy-2-methyl-6-phenyl-2H-pyrazino[2,1-a]isoquinoline dihyrochloride]",20
6.60,"CN1CCN2[C@@H](c3ccccc3)Cc3cc(O)ccc3[C@@H]2C1 (relative stereo) [Example 2, cis-1,3,4,6,7,11b-hexahydro-9-hydroxy-2-methyl-6-phenyl-2H-pyrazino[2,1-a]isoquinoline dihydrobromide]",–
